Data as given in ChEMBL document CHEMBL1255326, “erm(B)-carrying elements in tetracycline-resistant pneumococci and correspondence between Tn1545 and Tn6003” (2008).
Calls of active or inactive are those of the source. The rule behind the calls is not given here.

What was measured:
Streptococcus pneumoniae [1] = test: Antibacterial activity against tetracycline resistant Streptococcus pneumoniae clinical isolate expressing Tn6002 carrying erm(B) and tet(M) gene at 1000 ug by disk diffusion method; format: functional, organism-based
Streptococcus pneumoniae [2] = test: Antibacterial activity against tnpR/tnpA positive tetracycline resistant Streptococcus pneumoniae clinical isolate expressing Tn3872 carrying erm(B) and tet(M) gene at 1000 ug by disk diffusion method; format: functional, organism-based
Streptococcus pneumoniae [3] = test: Antibacterial activity against aphA-3 positive tetracycline resistant Streptococcus pneumoniae clinical isolate expressing Tn6003 carrying erm(B)and tet(M) gene at 1000 ug by disk diffusion method; format: functional, organism-based
Streptococcus pneumoniae [4] = test: Antibacterial activity against tetracycline resistant Streptococcus pneumoniae clinical isolate expressing erm(B) and tet(M) gene by agar dilution CLSI method; format: functional

For `NC[C@H]1O[C@H](O[C@H]2[C@H](O)[C@@H](O[C@H]3O[C@H](CO)[C@@H](O)[C@H](N)[C@H]3O)[C@H](N)C[C@@H]2N)[C@H](O)[C@@H](O)[C@@H]1O`, the Activity (Streptococcus pneumoniae [1]) was “Active”, the Activity (Streptococcus pneumoniae [2]) was “Active” and the Activity (Streptococcus pneumoniae [3]) was “inactive”.
With `CC[C@H]1OC(=O)[C@H](C)[C@@H](O[C@H]2C[C@@](C)(OC)[C@@H](O)[C@H](C)O2)[C@H](C)[C@@H](O[C@@H]2O[C@H](C)C[C@H](N(C)C)[C@H]2O)[C@](C)(O)C[C@@H](C)C(=O)[C@H](C)[C@@H](O)[C@]1(C)O` [ERYTHROMYCIN] the MIC (Streptococcus pneumoniae [4]) was greater than 128 µg/mL.
In the case of `CN(C)[C@@H]1C(O)=C(C(N)=O)C(=O)[C@@]2(O)C(O)=C3C(=O)c4c(O)cccc4[C@@](C)(O)[C@H]3C[C@@H]12` [TETRACYCLINE], the MIC (Streptococcus pneumoniae [4]) is reported as greater than 32 µg/mL.
